Blank lines part the entries; values can stand above or below the molecule they belong to.
Assays:
[1] = system: KR12C (synthetic, derived from human LL37); assay: ITC; conditions: ITC: 10 mM potassium phosphate pH 7.0, 100 mM KCl, 25 C, 20 uM peptide in cell, 500 uM G4 DNA in syringe, one-site fit. NMR: same buffer, 10% D2O, NOESY at …; for binding signal (fold lower affinity than c-MYC G4): 100 mM KCl, fold order read as BCL-2 then telomere
[2] = system: KR12C (synthetic, derived from human LL37); assay: CD melting; conditions: ITC: 10 mM potassium phosphate pH 7.0, 100 mM KCl, 25 C; 20 uM peptide in cell, 500 uM G4 DNA in syringe; one-site fit. NMR: same buffer, 10% D2O, NOESY at …
[3] = system: c-MYC promoter with Myc22 isomer in MCF-7 cells; assay: Dual-luciferase assay, c-MYC promoter under control of Myc22; format: cell-based, human; conditions: MCF-7, 24 h peptide treatment
Description: (§1) MCF-7 cells are sub-cultured into 24-well microtiter plates at a cell density of 1 × 10^5 cells/well. Reporter constructs (c-MYC, BCL-2, KRAS and VEGF-A) (500 ng) with and/or without the G-quadruplex scaffolds triggering the expression of Renilla luciferase are co-transfected with 50 ng of pGL3-control vectors (Promega) (used as internal control), encoding firefly luciferase into MCF-7 cells using Lipofectamine® 3000 transfection reagent (Thermo-Fisher Scientific) following manufacturer's recommendations (Supplementary information Section 1). Twenty four hours post-transfection, cells are treated with peptides (FK13, KR12A, KR12B, KR12C, KR12D and KR12E) at an increasing concentration gradient.
(§2) Dual-luciferase assays are performed to examine the intracellular selectivity of peptides for c-MYC quadruplex isomers (Pu27, Myc22 and Pu19) over other oncogenic quadruplexes (BCL-2, VEGF-A and KRAS) of different topologies. The role of peptide-quadruplex complex in oncogene promoter activation is investigated in contrast to the GQ-null promoter constructs into MCF-7 cells ([67]). After 24 h of peptide treatment, cells are washed and lysed into 100 μl 1× Passive lysis buffer (PLB) for 15 min at room temperature. Renilla and firefly Luciferase activities in 25 μl lysate are quantified by Dual-Luciferase® reporter assay system (Promega) as per manufacturer's recommendations. Renilla luciferase enzyme activity is normalized to that of the firefly luciferase activity and luminescence of the peptide-treated samples are normalized to the untreated ones, which yield the fold induction values for Renilla activities by different quadruplex structures in presence and absence of synthetic peptides. Luminescence of each sample is detected in GloMax® 20/20 Single-Tube Luminometer (Promega) in triplicates and averaged from three independent experiments.

c-MYC quadruplex Pu27 = assay: CD melting of free and peptide-bound Pu27; format: binding, human
Description: To understand the role of peptides (FK13, KR12A, KR12B, KR12C, KR12D and KR12E) in stabilizing native and truncated isomers of c-MYC G-quadruplex, we have performed temperature-driven CD melting experiments for free and peptide-bound complexes in JASCO-J815 CD spectrometer. We have gradually titrated the peptides into 10 μM of putative quadruplexes and acquired the spectra after 5 min of peptide addition to allow complex formation and equilibration. Samples are heated from 20 to 95°C having the temperature gradient and the delay time of 2.5°C/min and 150 s respectively. Since the quadruplexes unfold at higher temperatures and revert back to their initial conformations upon renaturation, we have assumed a ‘two-state transition’ model (folded and unfolded) to analyze the melting curves and estimated the melting temperatures (Tm) by fitting the data points into sigmoidal curves (Supplementary information Section 1).

[4] = system: native c-MYC quadruplex (Pu27); assay: ITC of peptides with native c-MYC quadruplex Pu27 in potassium phosphate buffer; format: binding, human; conditions: 25°C, 20 μM peptide in cell, 500 μM Pu27 in syringe, 10 mM potassium phosphate, 0.1 M KCl, pH 7.0, one-site model
Description: The putative wild-type and truncated G-quadruplex forming sequences (Table 2 and Supplementary Table S1), located at the upstream of c-MYC promoter are reconstituted in 10 mM Potassium Phosphate buffer (pH 7.0) having 100 mM potassium chloride (KCl). The sequences are allowed to evolve G-quadruplex structure in solution by annealing at 95°C followed by gradual cooling. (Supplementary information Section 1).
Thermodynamic attributes of the interaction profiles between peptides and putative quadruplex sequences are analysed by ITC using iTC200 Microcalorimeter at 25°C. Synthetic peptides (FK13, KR12A, KR12B, KR12C, KR12D and KR12E) are diluted to 20 μM in 10 mM Potassium phosphate buffer (10 mM K2HPO4 + 10 mM KH2PO4) containing 0.1 M KCl (pH 7.0). Syringe is filled with 500 μM quadruplex sequences present in the upstream promoter regions of c-MYC (Pu27, Pu19, and Myc22), BCL-2 (Pu30), VEGF-A (Pu22), KRAS (Pu32) oncogenes, and telomere (Tel26) dissolved into the same buffer. We also carried out the experiment for KR12C and Pu27 using MCF-7 nuclear extract as the solvent to mimic the cellular microenvironment and impart macromolecular crowding during binding events. Same concentration of oligonucleotides is injected into the identical buffer or in nuclear extract without peptides to normalize the heat of dilution of peptide-quadruplex association to that of the control before curve-fitting. Oligonucleotides are injected 20 times at an interval of 150 s into the calorimeter cell having the peptides to achieve binding saturation. The heat of reaction per injection (μcal/s) is determined by integration of the peak areas using in-built Origin 7.0 software that provides the best-fit values of enthalpy (ΔH) and entropy (ΔS) of binding, the binding stoichiometry (n), and dissociation constant (Kd) (Supplementary Tables S5(a), S5(b) and S5(c)). Data points are further simulated with ‘one-site’ binding modes (Supplementary information Section 1).

[5] = system: BCL-2 promoter (BCL-2-GQ) in MCF-7 cells; assay: Dual-luciferase assay, BCL-2 promoter with BCL-2-GQ; format: cell-based, human; conditions: MCF-7, 24 h, peptide 0–60 μM
Description: as §1, §2

[6] = system: c-MYC promoter with Pu19 isomer in MCF-7 cells; assay: Dual-luciferase assay, c-MYC promoter under control of Pu19; format: cell-based, human; conditions: MCF-7, 24 h peptide treatment
Description: as §1, §2

[7] = system: KRAS promoter (KRAS-GQ) in MCF-7 cells; assay: Dual-luciferase assay, KRAS promoter with KRAS-GQ; format: cell-based, human; conditions: MCF-7, 24 h
Description: as §1, §2

[8] = system: c-MYC promoter (Pu27-GQ) in MCF-7 cells; assay: Dual-luciferase assay, c-MYC promoter with Pu27-GQ; format: cell-based, human; conditions: MCF-7, 24 h, peptide 0–60 μM
Description: as §1, §2

[9] = system: VEGF-A promoter (VEGF-A-GQ) in MCF-7 cells; assay: Dual-luciferase assay, VEGF-A promoter with VEGF-A-GQ; format: cell-based, human; conditions: MCF-7, 24 h, peptide 0–60 μM
Description: as §1, §2

[10] = system: KR12E (synthetic, derived from human LL37); assay: CD melting; conditions: destabilizes; ITC: 10 mM potassium phosphate pH 7.0, 100 mM KCl, 25 C; 20 uM peptide in cell, 500 uM G4 DNA in syringe; one-site fit. NMR: same buffer, 10% D2O, NOESY at …
[11] = system: KR12A (synthetic, derived from human LL37); assay: CD melting; conditions: destabilizes; ITC: 10 mM potassium phosphate pH 7.0, 100 mM KCl, 25 C; 20 uM peptide in cell, 500 uM G4 DNA in syringe; one-site fit. NMR: same buffer, 10% D2O, NOESY at …
[12] = system: KR12D (synthetic, derived from human LL37); assay: ITC; conditions: ITC: 10 mM potassium phosphate pH 7.0, 100 mM KCl, 25 C; 20 uM peptide in cell, 500 uM G4 DNA in syringe; one-site fit. NMR: same buffer, 10% D2O, NOESY at …
[13] = system: KR12E (synthetic, derived from human LL37); assay: ITC; conditions: ITC: 10 mM potassium phosphate pH 7.0, 100 mM KCl, 25 C; 20 uM peptide in cell, 500 uM G4 DNA in syringe; one-site fit. NMR: same buffer, 10% D2O, NOESY at …
[14] = system: KR12B (synthetic, derived from human LL37); assay: ITC; conditions: ITC: 10 mM potassium phosphate pH 7.0, 100 mM KCl, 25 C; 20 uM peptide in cell, 500 uM G4 DNA in syringe; one-site fit. NMR: same buffer, 10% D2O, NOESY at …
[15] = system: KR12A (synthetic, derived from human LL37); assay: ITC; conditions: ITC: 10 mM potassium phosphate pH 7.0, 100 mM KCl, 25 C; 20 uM peptide in cell, 500 uM G4 DNA in syringe; one-site fit. NMR: same buffer, 10% D2O, NOESY at …
[16] = biological target: T1, FK13 (LL37-derived peptide) (Homo sapiens (synthetic, derived from …, UniProt P49913 150-162)); assay: ITC; 100 mM KCl; ITC: 10 mM potassium phosphate pH 7.0, 100 mM KCl, 25 C; 20 uM peptide in cell, 500 uM G4 DNA in syringe; one-site fit. NMR: same buffer, 10% D2O, NOESY at 15 C; conditions: G4, unimolecular
T1 chain: FKRIVQRIKDFLR

Molecule: BCL-2 Pu30 quadruplex
- binding signal (fold lower affinity than c-MYC G4) [1]: 3

Molecule: GGAGGGTGGGGAGGGTGGGGAA [Myc22]
- binding signal (delta Tm, deg C) [2]: 6.91

- decrease of the Tm of Pu27 upon peptide binding (c-MYC quadruplex Pu27; 10 μM quadruplex, two-state model): ~30 °C
- Kd [4]: 53.2 µM
- ΔG (binding energy) [4]: -5.89 kcal/mol
- ΔH (binding enthalpy) [4]: -168 kcal/mol
Molecule: N – KRIVKRIKKWLL – C [KR12E, dodecameric mutant peptide derived from FK13 / LL37]
- c-MYC promoter activation under control of Myc22 [3]: no regulatory effect
- K A [4]: 18800 M⁻¹
- ΔS (entropy) [4]: −544 cal/mol/deg
- BCL-2 promoter activity [5]: no significant effects
- c-MYC promoter activation under control of Pu19 [6]: no regulatory effect
- KRAS promoter activity ([7]; peptide 0–60 μM): no significant effects
- c-MYC promoter activity [8]: no significant effects
- VEGF-A promoter activity [9]: no significant effects

- Kd [4]: 49 µM
- ΔG (binding energy) [4]: -5.774 kcal/mol
- ΔH (binding enthalpy) [4]: -136 kcal/mol
Molecule: N – KRIVKVIKKWLR – C [KR12D, dodecameric mutant peptide derived from FK13 / LL37]
- c-MYC promoter activation under control of Myc22 [3]: no regulatory effect
- effect on thermal stability of Pu27 (c-MYC quadruplex Pu27): did not significantly induce thermal stability
- K A [4]: 20400 M⁻¹
- ΔS (entropy) [4]: −437 cal/mol/deg
- BCL-2 promoter activity [5]: no significant effects
- c-MYC promoter activation under control of Pu19 [6]: no regulatory effect
- KRAS promoter activity, fold inhibition ([7]; at higher concentration): ~1.6 fold
- c-MYC promoter activity [8]: no significant effects
- VEGF-A promoter activity [9]: no significant effects

Molecule: TGGGGAGGGTGGGGAGGGT [Pu19]
- binding signal (delta Tm, deg C) [2]: 10.9

Molecule: TGGGGAGGGTGGGGAGGGTGGGGAAGG [Pu27 c-MYC quadruplex]
- binding signal (delta Tm, deg C) [10]: -30
- binding signal (delta Tm, deg C) [2]: 9
- binding signal (delta Tm, deg C) [11]: -30
- Kd [12]: 49 µM
- Kd [13]: 53.2 µM
- Kd [1]: 8.06 µM
- Kd ([1]; MCF-7 nuclear extract as solvent (crowding)): 0.901 µM
- Kd [14]: 37.3 µM
- Kd [15]: 61.7 µM

Molecule: Tel26 telomeric quadruplex
- binding signal (fold lower affinity than c-MYC G4) [1]: 4

Molecule: TGGGGAGGGTGGGGAGGGTGGGGAAGG (structured_DNA) [Pu27 c-MYC quadruplex]
- Kd [16]: 34.6 µM

Source: article PMC6212778, “Site-specific amino acid substitution in dodecameric peptides determines the stability and unfolding of c-MYC quadruplex promoting apoptosis in cancer cells” (Nucleic Acids Research, 2018)
